Bounds are passed on as bounds.

The subject of data set [1] is Target C. As to the kind of experiment: HiBiT protein abundance assay, Target C. The format is cell-based, human. Conditions: Homo sapiens, K562, 24 h, Table 13B, modified K562 cells. The method, boiled down: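 Target tagged with HiBiT by knock-in; 24 h dosing, 10 μM top final in 3-fold steps. IC50 from 4PL fit of normalized luminescence.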
In general terms: HiBiT is a short tag that completes a luciferase, so light tracks the accessible tagged protein.

Data set [2] is described as follows: Transwell assay for membrane efflux and permeability. Type of data set: in vitro ADME, Canine. The note with it: dog; MDCK-BCRP or MDCKII-MDR1 transwell, test compound 1 μM, 2 hours at 37° C. Summed up:
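Transport measured over 2 h at 37 °C with compounds at 1 μM final in HBSS containing 0.5% DMSO. Monolayers of BCRP-expressing MDCK or MDR1-expressing MDCKII cells were cultured 4-8 days, then HBSS-washed and equilibrated 30 min at 37 °C before dosing.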

What is called IC50 is the point on the concentration scale where inhibition reaches its midpoint. A lower IC50 goes with higher potency. The term Papp denotes a coefficient for how fast a substance crosses the barrier. Low readings indicate slow passage, high ones fast passage. One may read the efflux ratio as the permeability from basolateral to apical divided by that in the opposite direction, in the common usage. Molecule `CN(c1ccc(-c2ccc(-c3cn[nH]c3)cn2)nn1)[C@@H]1C[C@H]2CC[C@@H](C1)N2` [Compound 915] had an IC50 in data set [1] of 1000 to 10000 nM. Further, in data set [2], the Papp at 2 h, 1 μM was < 2 ×10⁻⁶ cm/s and the efflux ratio at 2 h, 1 μM is < 1.5.
Consider `COc1nc(-c2ccc(OC3CC(C)(C)NC(C)(C)C3)nn2)ccc1-c1cn[nH]c1` [Compound 917], for which the IC50 in data set [1] is < 100 nM. Further, in data set [2], the Papp at 2 h, 1 μM lay in the range of 2 to 6 ×10⁻⁶ cm/s and the efflux ratio at 2 h, 1 μM was > 5.
The molecule `COc1nc(-c2ccc(OC3CC(C)(C)NC(C)(C)C3)nn2)ccc1-c1cnn(C)c1` [Compound 918] came in with an IC50 in data set [1] of 100 to 1000 nM. Moreover, in data set [2], the Papp at 2 h, 1 μM fell in the range of 2 to 6 ×10⁻⁶ cm/s and the efflux ratio at 2 h, 1 μM is > 5.
The corresponding values for `COc1nc(-c2ccc(N(C)C3CC(C)(C)NC(C)(C)C3)nn2)ccc1-c1cn[nH]c1` [Compound 919] are < 100 nM, < 2 ×10⁻⁶ cm/s and > 5.
In turn, `COc1nc(-c2ccc(N(C)C3CC(C)(C)NC(C)(C)C3)nn2)ccc1-c1cnn(C)c1` [Compound 920] had an IC50 in data set [1] of 100 to 1000 nM. In data set [2], the apparent permeability coefficient (Papp) at 2 h, 1 μM was in the range of 2 to 6 ×10⁻⁶ cm/s and the efflux ratio at 2 h, 1 μM is > 5.
The corresponding values for `CN(c1ccc(-c2ccc(-c3cn[nH]c3)c(F)n2)nn1)[C@@H]1C[C@H]2CC[C@@H](C1)N2` [Compound 922] are < 100 nM, < 2 ×10⁻⁶ cm/s and > 5.
As to `CN(c1ccc(-c2ccc(-c3cn[nH]c3)c(C#N)n2)nn1)[C@@H]1C[C@H]2CC[C@@H](C1)N2` [Compound 930], the IC50 in data set [1] was < 100 nM. Moreover, in data set [2], the Papp at 2 h, 1 μM is < 2 ×10⁻⁶ cm/s and the efflux ratio at 2 h, 1 μM is > 5.
Turning to `COc1nc(-c2ccc(N(C)[C@@H]3C[C@H]4CC[C@@H](C3)N4)nn2)cc(F)c1-c1cn[nH]c1` [Compound 931], the IC50 in data set [1] was < 100 nM. Moreover, in data set [2], the Papp at 2 h, 1 μM was < 2 ×10⁻⁶ cm/s and the efflux ratio at 2 h, 1 μM is > 5.
In the case of `CN(c1ccc(-c2ccc(-c3cn[nH]c3)c(OC3CC3)n2)nn1)[C@@H]1C[C@H]2CC[C@@H](C1)N2` [Compound 939], the IC50 in data set [1] is < 100 nM. In data set [2], the Papp at 2 h, 1 μM was < 2 ×10⁻⁶ cm/s and the efflux ratio at 2 h, 1 μM was > 5.
`COc1cc(-c2ccc(-c3ccc(N(C)[C@@H]4C[C@H]5CC[C@@H](C4)N5)nn3)nc2OC)ncn1` [Compound 954]: the IC50 in data set [1] fell in the range of 1000 to 10000 nM. For the same molecule, in data set [2], the Papp at 2 h, 1 μM is < 2 ×10⁻⁶ cm/s and the efflux ratio at 2 h, 1 μM is > 5.
Regarding `CN(c1ccc(-c2ccc(-c3cn[nH]c3)c(OC(F)F)n2)nn1)[C@@H]1C[C@H]2CC[C@@H](C1)N2` [Compound 955], the half-inhibitory concentration (IC50) in data set [1] was < 100 nM. For the same molecule, in data set [2], the Papp at 2 h, 1 μM is < 2 ×10⁻⁶ cm/s and the efflux ratio at 2 h, 1 μM was > 5.
The corresponding values for `COc1nc(-c2ccc(N3CCC(NC(C)(C)C)C3)nn2)ccc1-c1cn[nH]c1` (stereo not drawn) [Compound 956] are 100 to 1000 nM, 2 to 6 ×10⁻⁶ cm/s and > 5.
On the same counts, the results for `COc1nc(-c2ccc(N(C)[C@@H]3C[C@H]4CC[C@@H](C3)N4)nn2)ccc1-c1ccnc(O)c1` [Compound 961] are 100 to 1000 nM, < 2 ×10⁻⁶ cm/s and 1.5 to 5.
In turn, `COc1nc(-c2ccc(O[C@@H]3C[C@H]4CC[C@@H](C3)N4)nn2)ccc1-c1cnc(C)s1` [Compound 962] displayed an IC50 in data set [1] of 100 to 1000 nM. For the same molecule, in data set [2], the Papp at 2 h, 1 μM lay in the range of 2 to 6 ×10⁻⁶ cm/s and the efflux ratio at 2 h, 1 μM fell in the range of 1.5 to 5.
For `COc1nc(-c2ccc(OC3CC(C)(C)NC(C)(C)C3)nn2)cc(F)c1-c1cn[nH]c1` [Compound 965], the IC50 in data set [1] is < 100 nM. In data set [2], the Papp at 2 h, 1 μM was in the range of 2 to 6 ×10⁻⁶ cm/s and the efflux ratio at 2 h, 1 μM is > 5.
On to `CCOc1nc(-c2ccc(OC3CC(C)(C)NC(C)(C)C3)nn2)cc(F)c1-c1cn[nH]c1` [Compound 966], for which the IC50 in data set [1] is < 100 nM. Besides, in data set [2], the Papp at 2 h, 1 μM is 2 to 6 ×10⁻⁶ cm/s and the efflux ratio at 2 h, 1 μM is > 5.
The corresponding values for `CCOc1nc(-c2ccc(OC3CC(C)(C)NC(C)(C)C3)nn2)ccc1-c1cn[nH]c1` [Compound 967] are < 100 nM, 2 to 6 ×10⁻⁶ cm/s and 1.5 to 5.
The molecule `COc1nc(-c2ccc(OC3CC4CC(F)(F)C(C3)N4)nn2)cc(F)c1-c1cn[nH]c1` (stereo not drawn) [Compound 969] displayed an IC50 in data set [1] of 100 to 1000 nM. In addition, in data set [2], the Papp at 2 h, 1 μM was in the range of 2 to 6 ×10⁻⁶ cm/s and the efflux ratio at 2 h, 1 μM was > 5.
